According to ChEMBL document CHEMBL4619816, “GSK973 Is an Inhibitor of the Second Bromodomains (BD2s) of the Bromodomain and Extra-Terminal (BET) Family” (ACS Med Chem Lett, 2020):
Activity calls are given as the source filed them. The rule behind the calls is not given here.

Experiments:
[1] = Renal clearance in Beagle dog at 1 mg/kg, iv; type: ADME, organism-based, Canis lupus familiaris; conditions: in vivo
[2] = target: Bromodomain-containing protein 1 (Homo sapiens) (UniProt O95696); experiment: Inhibition of human partial length BRD1 (E556 to A688 residues) expressed in bacterial expression system by BROMOscan assay
[3] = target: Bromodomain-containing protein 2 (Homo sapiens) (UniProt P25440); experiment: Inhibition of human partial length BRD2 bromodomain 1 long isoform (K71 to N194 residues) expressed in bacterial expression system by BROMOscan assay
[4] = Half life in Wistar Han rat at 1 mg/kg administered as iv infusion for 1 hr and measured up to 24 hrs by LC-MS/MS analysis; type: ADME, organism-based; conditions: in vivo
[5] = target: Bromodomain testis-specific protein (Homo sapiens) (UniProt Q58F21); experiment: Inhibition of human partial length BRDT bromodomain 1 (N21 to E137 residues) expressed in bacterial expression system by BROMOscan assay
[6] = target: Bromodomain testis-specific protein (Homo sapiens) (UniProt Q58F21); experiment: Inhibition of human partial length BRDT bromodomain 2 (K250 to E382 residues) expressed in bacterial expression system by BROMOscan assay
[7] = Renal clearance in Wistar Han rat at 1 mg/kg administered as iv infusion for 1 hr and measured up to 24 hrs by LC-MS/MS analysis; type: ADME, organism-based; conditions: in vivo
[8] = Clearance in Wistar Han rat hepatocytes assessed as per gram tissue at 0.5 uM measured up to 1 hr by LC-MS/MS analysis; type: ADME, cell-based, Hepatocyte
[9] = target: SWI/SNF-related matrix-associated actin-dependent regulator of chromatin subfamily A member 4 (Homo sapiens) (UniProt P51532); experiment: Inhibition of human partial length SMARCA4 (A1448 to S1575 residues) expressed in bacterial expression system by BROMOscan assay
[10] = target: Transcription intermediary factor 1-alpha (Homo sapiens) (UniProt O15164); experiment: Inhibition of human partial length TRIM24 (P790 to P977 residues) expressed in bacterial expression system by BROMOscan assay
[11] = target: Bromodomain-containing protein 9 (Homo sapiens) (UniProt Q9H8M2); experiment: Inhibition of human partial length BRD9 (R130 to V259 residues) expressed in bacterial expression system by BROMOscan assay
[12] = target: Transcription initiation factor TFIID subunit 1-like (Homo sapiens) (UniProt Q8IZX4); experiment: Inhibition of human partial length TAF1L bromodomain 2 (Q1523 to D1654 residues) expressed in bacterial expression system by BROMOscan assay
[13] = target: Protein polybromo-1 (Homo sapiens) (UniProt Q86U86); experiment: Inhibition of human partial length PBRM1 bromodomain 5 (S645 to D766 residues) expressed in bacterial expression system by BROMOscan assay
[14] = target: Bromodomain adjacent to zinc finger domain protein 2A (Homo sapiens) (UniProt Q9UIF9); experiment: Inhibition of human partial length BAZ2A (M1792 to L1905 residues) expressed in bacterial expression system by BROMOscan assay
[15] = target: Bromodomain-containing protein 3 (Homo sapiens) (UniProt Q15059); experiment: Inhibition of human partial length BRD3 bromodomain 2 (G306 to P416 residues) expressed in bacterial expression system by BROMOscan assay
[16] = Clearance in Wistar Han rat at 1 mg/kg administered as iv infusion for 1 hr and measured up to 24 hrs by LC-MS/MS analysis; type: ADME, organism-based; conditions: in vivo
[17] = target: ATPase family AAA domain-containing protein 2B (Homo sapiens) (UniProt Q9ULI0); experiment: Inhibition of human partial length ATAD2B (Q955 to R1082 residues) expressed in bacterial expression system by BROMOscan assay
[18] = target: Peregrin (Homo sapiens) (UniProt P55201); experiment: Inhibition of human partial length BRPF1 (E627 to G740 residues) expressed in bacterial expression system by BROMOscan assay
[19] = target: Bromodomain and PHD finger-containing protein 3 (Homo sapiens) (UniProt Q9ULD4); experiment: Inhibition of human partial length BRPF3 (E588 to G701 residues) expressed in bacterial expression system by BROMOscan assay
[20] = Chromatographic hydrophobicity index, log D of the compound in pH 7.4 ammonium acetate buffer/acetonitrile gradient by HPLC analysis; type: physicochemical
[21] = target: Chromatin remodeling regulator CECR2 (Homo sapiens) (UniProt Q9BXF3); experiment: Inhibition of human partial length CECR2 (P423 to D543 residues) expressed in bacterial expression system by BROMOscan assay
[22] = Clearance in Beagle dog hepatocytes assessed as per gram tissue at 0.5 uM by LC-MS/MS analysis; type: ADME, cell-based, Canis lupus familiaris, Hepatocyte
[23] = Volume of distribution at steady state in Beagle dog at 1 mg/kg, iv; type: ADME, organism-based, Canis lupus familiaris; conditions: in vivo, read-out: Vdss
[24] = target: ATPase family AAA domain-containing protein 2 (Homo sapiens) (UniProt Q6PL18); experiment: Inhibition of human partial length ATAD2A (Q981 to R1108 residues) expressed in bacterial expression system by BROMOscan assay
[25] = Oral bioavailability in Beagle dog at 1 mg/kg, […]; type: ADME, organism-based, Canis lupus familiaris; conditions: in vivo
[26] = target: SWI/SNF-related matrix-associated actin-dependent regulator of chromatin subfamily A member 2 (Homo sapiens) (UniProt P51531); experiment: Inhibition of human partial length SMARCA2 (S1377 to Q1486 residues) expressed in bacterial expression system by BROMOscan assay
[27] = target: Bromodomain-containing protein 2 (Homo sapiens) (UniProt P25440); experiment: Inhibition of human partial length BRD2 bromodomain 2 isoform 1 (E348 to D455 residues) expressed in bacterial expression system by BROMOscan assay
[28] = target: Bromodomain testis-specific protein (Homo sapiens) (UniProt Q58F21); experiment: Inhibition of BRDT bromodomain 1/2 (unknown origin) by BROMOscan assay
[29] = Clearance in Beagle dog at 1 mg/kg, iv; type: ADME, organism-based, Canis lupus familiaris; conditions: in vivo
[30] = Half life in Beagle dog at 1 mg/kg, iv; type: ADME, organism-based, Canis lupus familiaris; conditions: in vivo
[31] = target: CREB-binding protein (Homo sapiens) (UniProt Q92793); experiment: Inhibition of human partial length CREBBP (R1081 to G1197 residues) expressed in bacterial expression system by BROMOscan assay
[32] = target: Histone acetyltransferase KAT2A (Homo sapiens) (UniProt Q92830); experiment: Inhibition of human partial length GCN5L2 (E726 to K837 residues) expressed in bacterial expression system by BROMOscan assay
[33] = target: Bromodomain and WD repeat-containing protein 1 (Homo sapiens) (UniProt Q9NSI6); experiment: Inhibition of human partial length WDR9 bromodomain 2 (A1310 to E1430 residues) expressed in bacterial expression system by BROMOscan assay
[34] = target: Transcription initiation factor TFIID subunit 1 (Homo sapiens) (UniProt P21675); experiment: Inhibition of human partial length TAF1 bromodomain 2 (D1521 to D1656 residues) expressed in bacterial expression system by BROMOscan assay
[35] = target: Histone acetyltransferase KAT2B (Homo sapiens) (UniProt Q92831); experiment: Inhibition of human partial length PCAF (G715 to D831 residues) expressed in bacterial expression system by BROMOscan assay
[36] = target: Bromodomain-containing protein 3 (Homo sapiens) (UniProt Q15059); experiment: Inhibition of human partial length BRD3 bromodomain 1 (P24 to E144 residues) expressed in bacterial expression system by BROMOscan assay

Chain of Bromodomain-containing protein 2 (Homo sapiens) (P25440 whole entry, looked up, the tested form may be a part, canonical isoform): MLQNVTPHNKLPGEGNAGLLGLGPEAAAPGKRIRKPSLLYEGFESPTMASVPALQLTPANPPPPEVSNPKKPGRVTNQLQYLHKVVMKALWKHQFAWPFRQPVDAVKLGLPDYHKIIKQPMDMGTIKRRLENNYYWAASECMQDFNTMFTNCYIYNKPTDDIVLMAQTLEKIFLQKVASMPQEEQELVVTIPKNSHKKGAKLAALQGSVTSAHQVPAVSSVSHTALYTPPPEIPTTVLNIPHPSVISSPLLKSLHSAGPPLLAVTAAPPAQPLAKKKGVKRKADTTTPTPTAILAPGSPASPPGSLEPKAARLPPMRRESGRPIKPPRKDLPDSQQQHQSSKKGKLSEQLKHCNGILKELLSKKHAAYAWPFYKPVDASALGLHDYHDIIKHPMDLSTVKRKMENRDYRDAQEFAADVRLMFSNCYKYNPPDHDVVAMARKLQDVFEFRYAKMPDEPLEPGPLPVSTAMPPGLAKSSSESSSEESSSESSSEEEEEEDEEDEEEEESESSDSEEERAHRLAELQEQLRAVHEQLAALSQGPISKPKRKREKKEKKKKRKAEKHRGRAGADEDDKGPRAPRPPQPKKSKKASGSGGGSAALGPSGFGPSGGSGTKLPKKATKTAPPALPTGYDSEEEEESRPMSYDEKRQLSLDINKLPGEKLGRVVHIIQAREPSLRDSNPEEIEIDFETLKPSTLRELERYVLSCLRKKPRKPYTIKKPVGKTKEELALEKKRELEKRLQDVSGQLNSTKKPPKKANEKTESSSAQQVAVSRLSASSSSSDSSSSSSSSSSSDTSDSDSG
Chain of Bromodomain-containing protein 3 (Homo sapiens) (Q15059 2-726 limits assumed): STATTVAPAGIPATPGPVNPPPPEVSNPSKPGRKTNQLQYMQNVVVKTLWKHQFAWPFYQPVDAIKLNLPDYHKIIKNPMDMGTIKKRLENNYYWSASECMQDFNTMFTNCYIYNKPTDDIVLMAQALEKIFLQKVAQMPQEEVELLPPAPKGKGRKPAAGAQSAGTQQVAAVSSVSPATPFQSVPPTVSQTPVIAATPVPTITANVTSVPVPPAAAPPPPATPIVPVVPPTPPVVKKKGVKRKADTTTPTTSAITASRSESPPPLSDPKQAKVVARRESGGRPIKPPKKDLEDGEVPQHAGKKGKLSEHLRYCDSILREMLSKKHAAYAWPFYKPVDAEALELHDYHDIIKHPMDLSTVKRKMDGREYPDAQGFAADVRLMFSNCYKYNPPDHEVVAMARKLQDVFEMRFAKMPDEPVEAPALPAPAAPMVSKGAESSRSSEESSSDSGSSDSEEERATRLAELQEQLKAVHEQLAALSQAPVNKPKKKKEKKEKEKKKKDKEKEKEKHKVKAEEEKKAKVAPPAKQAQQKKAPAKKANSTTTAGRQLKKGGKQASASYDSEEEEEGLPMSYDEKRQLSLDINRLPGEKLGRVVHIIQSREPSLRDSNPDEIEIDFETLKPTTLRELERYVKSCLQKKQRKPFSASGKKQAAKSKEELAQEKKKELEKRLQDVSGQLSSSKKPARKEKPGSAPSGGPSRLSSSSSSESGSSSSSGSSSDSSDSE
Chain of Protein polybromo-1 (Homo sapiens) (Q86U86 whole entry, the tested form may be a part): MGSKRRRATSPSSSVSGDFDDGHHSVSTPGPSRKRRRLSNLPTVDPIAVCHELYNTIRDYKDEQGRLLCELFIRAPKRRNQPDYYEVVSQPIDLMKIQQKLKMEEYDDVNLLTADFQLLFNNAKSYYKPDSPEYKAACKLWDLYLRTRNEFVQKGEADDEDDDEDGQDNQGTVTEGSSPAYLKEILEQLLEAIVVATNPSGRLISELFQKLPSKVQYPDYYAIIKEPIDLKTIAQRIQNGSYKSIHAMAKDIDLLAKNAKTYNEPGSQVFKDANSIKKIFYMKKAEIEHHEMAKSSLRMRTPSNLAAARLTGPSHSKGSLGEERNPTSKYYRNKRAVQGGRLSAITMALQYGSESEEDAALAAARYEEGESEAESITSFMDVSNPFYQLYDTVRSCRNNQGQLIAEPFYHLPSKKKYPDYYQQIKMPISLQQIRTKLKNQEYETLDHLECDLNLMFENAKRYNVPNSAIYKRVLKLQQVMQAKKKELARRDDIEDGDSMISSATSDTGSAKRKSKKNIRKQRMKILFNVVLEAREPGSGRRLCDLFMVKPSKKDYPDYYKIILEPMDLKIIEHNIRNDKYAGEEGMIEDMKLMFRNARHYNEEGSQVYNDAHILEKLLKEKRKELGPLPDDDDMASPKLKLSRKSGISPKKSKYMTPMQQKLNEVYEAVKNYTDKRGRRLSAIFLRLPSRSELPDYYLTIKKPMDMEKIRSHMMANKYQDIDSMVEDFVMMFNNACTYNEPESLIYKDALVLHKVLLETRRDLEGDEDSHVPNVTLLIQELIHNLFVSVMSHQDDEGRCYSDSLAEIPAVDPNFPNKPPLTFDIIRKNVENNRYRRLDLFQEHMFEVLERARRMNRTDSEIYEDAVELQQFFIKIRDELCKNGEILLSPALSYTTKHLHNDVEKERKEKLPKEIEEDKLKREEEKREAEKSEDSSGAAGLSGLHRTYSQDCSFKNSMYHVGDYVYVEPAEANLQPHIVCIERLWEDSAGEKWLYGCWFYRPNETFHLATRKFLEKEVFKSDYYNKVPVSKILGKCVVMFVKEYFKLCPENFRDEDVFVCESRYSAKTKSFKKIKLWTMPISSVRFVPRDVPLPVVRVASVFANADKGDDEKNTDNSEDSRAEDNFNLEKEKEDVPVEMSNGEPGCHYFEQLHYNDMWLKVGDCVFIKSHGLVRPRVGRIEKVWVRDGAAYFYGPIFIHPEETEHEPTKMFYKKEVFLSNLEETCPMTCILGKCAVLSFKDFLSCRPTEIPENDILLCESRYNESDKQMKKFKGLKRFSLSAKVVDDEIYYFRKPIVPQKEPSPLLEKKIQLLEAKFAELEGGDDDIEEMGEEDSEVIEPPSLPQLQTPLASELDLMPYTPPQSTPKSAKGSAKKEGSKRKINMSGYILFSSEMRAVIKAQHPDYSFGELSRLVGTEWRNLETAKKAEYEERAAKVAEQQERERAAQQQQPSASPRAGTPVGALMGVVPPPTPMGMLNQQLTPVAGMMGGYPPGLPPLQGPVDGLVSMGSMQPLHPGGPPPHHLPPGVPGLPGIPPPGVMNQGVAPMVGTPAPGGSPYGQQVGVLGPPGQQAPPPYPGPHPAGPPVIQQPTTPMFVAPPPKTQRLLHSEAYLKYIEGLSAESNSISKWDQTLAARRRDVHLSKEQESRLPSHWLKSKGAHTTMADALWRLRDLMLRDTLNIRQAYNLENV
Chain of Chromatin remodeling regulator CECR2 (Homo sapiens) (Q9BXF3 whole entry, looked up, the tested form may be a part): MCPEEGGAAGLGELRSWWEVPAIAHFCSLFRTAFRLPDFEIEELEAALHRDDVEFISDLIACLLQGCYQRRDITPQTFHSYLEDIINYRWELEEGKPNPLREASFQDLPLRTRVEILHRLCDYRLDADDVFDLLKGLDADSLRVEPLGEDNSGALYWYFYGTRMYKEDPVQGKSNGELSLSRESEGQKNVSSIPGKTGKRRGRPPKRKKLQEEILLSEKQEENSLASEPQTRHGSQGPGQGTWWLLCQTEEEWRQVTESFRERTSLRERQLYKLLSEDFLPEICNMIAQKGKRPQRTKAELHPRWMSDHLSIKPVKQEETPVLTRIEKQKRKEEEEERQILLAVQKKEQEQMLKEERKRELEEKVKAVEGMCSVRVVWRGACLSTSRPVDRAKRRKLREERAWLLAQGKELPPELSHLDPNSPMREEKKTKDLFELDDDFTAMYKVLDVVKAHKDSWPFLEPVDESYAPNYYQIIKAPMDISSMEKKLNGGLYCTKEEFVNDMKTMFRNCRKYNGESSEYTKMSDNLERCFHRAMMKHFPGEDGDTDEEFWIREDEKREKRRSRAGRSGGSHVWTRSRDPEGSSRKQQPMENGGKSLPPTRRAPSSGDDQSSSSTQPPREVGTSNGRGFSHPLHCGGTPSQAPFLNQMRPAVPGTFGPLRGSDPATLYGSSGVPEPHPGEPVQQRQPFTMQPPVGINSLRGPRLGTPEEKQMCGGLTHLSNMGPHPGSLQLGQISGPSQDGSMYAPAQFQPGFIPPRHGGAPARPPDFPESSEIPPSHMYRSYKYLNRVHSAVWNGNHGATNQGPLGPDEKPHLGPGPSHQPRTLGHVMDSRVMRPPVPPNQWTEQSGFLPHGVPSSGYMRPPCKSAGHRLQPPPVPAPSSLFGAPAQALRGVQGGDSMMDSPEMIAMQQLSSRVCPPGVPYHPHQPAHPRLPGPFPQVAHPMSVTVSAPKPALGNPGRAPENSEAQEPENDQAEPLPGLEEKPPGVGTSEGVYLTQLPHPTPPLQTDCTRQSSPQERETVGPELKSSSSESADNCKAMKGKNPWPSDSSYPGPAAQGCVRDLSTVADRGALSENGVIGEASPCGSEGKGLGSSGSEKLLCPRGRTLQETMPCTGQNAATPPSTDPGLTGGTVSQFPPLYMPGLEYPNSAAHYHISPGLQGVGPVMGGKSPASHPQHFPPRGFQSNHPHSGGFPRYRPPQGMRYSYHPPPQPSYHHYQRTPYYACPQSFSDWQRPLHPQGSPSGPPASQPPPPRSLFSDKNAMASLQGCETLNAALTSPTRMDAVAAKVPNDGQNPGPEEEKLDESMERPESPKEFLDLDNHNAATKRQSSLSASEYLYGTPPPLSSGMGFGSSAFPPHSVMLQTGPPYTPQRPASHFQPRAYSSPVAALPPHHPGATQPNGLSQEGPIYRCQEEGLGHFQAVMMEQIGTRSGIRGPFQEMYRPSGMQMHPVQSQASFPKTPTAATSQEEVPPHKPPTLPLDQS

CL renal [1]: 0.3 mL/min/kg
inhibition [2]: inactive
inhibition [3]: inactive
half-life [4]: 0.6 h
inhibition [5]: inactive
inhibition [6]: inactive
CL renal [7]: 4 mL/min/kg
CLH [8]: 1.76 mL/min/g
inhibition [9]: inactive
inhibition [10]: inactive
inhibition [11]: inactive
inhibition [12]: inactive
inhibition [13]: inactive
inhibition [14]: inactive
inhibition [15]: inactive
clearance [16]: 73 mL/min/kg
inhibition [17]: inactive
inhibition [18]: inactive
inhibition [19]: inactive
CHI [20]: 3.56
inhibition [21]: inactive
CLH [22]: < 0.65 mL/min/g
Vd [23]: 1.3 L/kg
inhibition [24]: inactive
bioavailability [25]: 87%
inhibition [26]: inactive
inhibition [27]: inactive
inhibition [28]: inactive
clearance [29]: 3 mL/min/kg
half-life [30]: 4.8 h
inhibition [31]: inactive
inhibition [32]: inactive
inhibition [33]: inactive
inhibition [34]: inactive
inhibition [35]: inactive
inhibition [36]: inactive
SMILES: CNC(=O)c1cc(C(=O)N[C@@H]2[C@@H]3COC[C@@H]32)cc2c1O[C@H](CF)[C@H]2c1ccccc1
